Experimental data published in patent publication US9353149B2, “Compounds, compositions and methods for the treatment of diseases through inhibiting TGF-β activity” (Southern Research Institute, priority 2013, dated 2016).
pIC50: −log10 of the molar value. Marks after values point to notes of the source that are not given here. Values belong to the compound of their own block, whether it stands above or below them. Residues, ends and D or L forms follow the SMILES beside them.

Columns and labels:
[1] = target: Recombinant latent TGF-beta incubated with TSP1 (Homo sapiens, UniProt P07996); experiment: TSP1 activation of recombinant latent TGF-beta, ELISA specific for active TGF-beta; type: biochemical; conditions: latent TGF-beta 500 pM, TSP1 48 nM, compounds 1-100 pM; read-out: Activity (IC 50)
Protocol: The assay for the IC 50 (Activity) data in Table 1 was as follows: Recombinant latent TGF-beta (500 pM) is incubated with TSP1 (48 nM) in the absence or presence of increasing concentrations of the identified compounds (1-100 pM). TGF-beta activity in the samples was measured using an ELISA specific for active TGF-beta (R&D Systems). IC50 values were calculated from the curves.

[2] = tested on: human CAG-heparanase myeloma cells; experiment: Systemic SCID-CAG-heparanase multiple myeloma model; type: in vivo, Male SCID mice; conditions: for Human serum κ / IL-6 / Serum TRAcP 5b: osmotic pump, 4 weeks
Protocol: The Table 2 below provides an analysis of the systemic SCID-CAG-heparanase model treated with increasing doses of Compound No 1 according to the present invention.
Table 2: Analyses of the Systemic SCID-CAG-Heparanase Model Treated with Increasing Doses of Compound No 1
Male SCID mice were injected via tail vein with 1.7×10^6 CAG-hpse cells and tumors allowed to establish over 2 weeks. Groups were randomized according to serum human kappa levels (n=15/group). Treatments were initiated at 2 weeks and continued for 4 weeks. Mice were treated with either saline or 0.3, 3.0, or 30 mg/kg/day of Compound No 1 peptide delivered by osmotic pumps. Pumps were replaced after 2 weeks and fresh peptide and pumps installed. *p<0.05 vs saline.

[3] = Plasma pharmacokinetics after single intravenous and oral administration; type: in vivo, male Swiss Albino mice
TSP1-TGF-β activation = conditions: cited from earlier work
[4] = Plasma stability half-life; type: in vitro ADME
Text: Peptides comprising the amino acid sequence LSKL, including the tetrapeptide LSKL, for inhibiting TGF-β activity and the use of these peptides and certain functional derivatives thereof for the treatment of kidney disease are described in U.S. Pat. No. 6,384,189 and U.S. Pat. No. 6,458,767. It is desirable to employ small molecules such as, e.g., LSKL because they are easier to synthesize and, thus, less costly. […] Accordingly, there is a need for small molecules which affect the activation of TGF-β and which also have an extended plasma stability half-life.

[5] = male, Swiss Albino, mouse, iv, 1 mg/kg
[6] = male, Swiss Albino, mouse, po, 3 mg/kg

Recombinant latent TGF-beta incubated with TSP1, sequence (P07996 19-1170): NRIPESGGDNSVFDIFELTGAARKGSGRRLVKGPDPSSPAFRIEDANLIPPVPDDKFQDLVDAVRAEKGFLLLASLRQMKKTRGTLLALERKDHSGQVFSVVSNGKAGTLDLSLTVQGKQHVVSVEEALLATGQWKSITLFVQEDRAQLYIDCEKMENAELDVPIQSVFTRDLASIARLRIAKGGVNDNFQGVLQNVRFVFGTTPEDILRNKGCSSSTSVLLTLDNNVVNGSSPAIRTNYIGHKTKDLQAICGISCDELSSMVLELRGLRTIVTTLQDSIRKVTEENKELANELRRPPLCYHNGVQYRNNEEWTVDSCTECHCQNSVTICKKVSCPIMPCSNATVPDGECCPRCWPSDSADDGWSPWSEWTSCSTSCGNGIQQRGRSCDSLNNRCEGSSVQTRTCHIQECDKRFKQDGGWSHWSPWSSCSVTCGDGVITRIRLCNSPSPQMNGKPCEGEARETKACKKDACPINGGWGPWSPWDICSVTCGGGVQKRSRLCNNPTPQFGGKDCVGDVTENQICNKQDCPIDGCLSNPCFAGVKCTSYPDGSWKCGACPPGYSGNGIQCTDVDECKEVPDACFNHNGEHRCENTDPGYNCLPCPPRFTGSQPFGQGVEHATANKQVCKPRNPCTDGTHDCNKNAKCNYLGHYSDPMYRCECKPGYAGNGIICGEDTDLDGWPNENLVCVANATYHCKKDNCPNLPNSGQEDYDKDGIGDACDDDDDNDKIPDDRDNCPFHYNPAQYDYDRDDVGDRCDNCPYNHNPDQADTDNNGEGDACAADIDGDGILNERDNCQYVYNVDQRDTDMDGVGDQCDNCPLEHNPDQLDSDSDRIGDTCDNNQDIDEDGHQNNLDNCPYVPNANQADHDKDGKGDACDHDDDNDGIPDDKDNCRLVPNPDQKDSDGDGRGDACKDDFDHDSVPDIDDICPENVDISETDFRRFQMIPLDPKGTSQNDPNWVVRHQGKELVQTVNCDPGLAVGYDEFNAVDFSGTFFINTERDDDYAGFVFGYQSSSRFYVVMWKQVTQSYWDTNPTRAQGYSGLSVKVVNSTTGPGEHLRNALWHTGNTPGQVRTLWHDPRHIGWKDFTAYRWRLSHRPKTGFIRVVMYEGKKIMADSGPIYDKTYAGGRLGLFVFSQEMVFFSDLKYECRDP

SMILES: CC(=O)NCCCC[C@H](NC(=O)[C@H](CO)NC(C)=O)C(=O)N[C@@H](CC(C)C)C(N)=O [Compound 99] (Ac-Ser-Lys(Ac)-Leu-NH2)
- pIC50 [1]: 9.30 to 10.00

SMILES: CC(=O)N[C@@H](CO)C(=O)N[C@@H](CCCCN)C(=O)N[C@@H](CC(C)C)C(=O)N(C)C [Compound 97] (HELM PEPTIDE1{[ac].S.K.L.[CN(C)[*:1]]}$$$$V2.0)
- pIC50 [1]: 9.30 to 10.00

SMILES: CNC(=O)[C@H](CC(C)C)NC(=O)[C@H](CCCCN)NC(=O)[C@H](CO)NC(C)=O [Compound 13] (HELM PEPTIDE1{[ac].S.K.L.[CN[*:1]]}$$$$V2.0)
- pIC50 [1]: 10.00 to 10.30

SMILES: CC(=O)N[C@@H](CO)C(=O)N[C@H](CCCCN)C(=O)N[C@@H](CC(C)C)C(N)=O [Compound 95] (HELM PEPTIDE1{[ac].S.[dK].L.[am]}$$$$V2.0)
- pIC50 [1]: 11.00 to 12.00

SMILES: CNCCCC[C@H](NC(=O)[C@H](CO)NC(C)=O)C(=O)N[C@@H](CC(C)C)C(N)=O [Compound 98] (HELM PEPTIDE1{[ac].S.[CNCCCC[C@H](N[*:1])C(=O)[*:2]].L.[am]}$$$$V2.0)
- pIC50 [1]: 9.30 to 10.00

SMILES: CC(=O)N[C@@H](CO)C(=O)N[C@@H](CCCCN)C(=O)N[C@@H](CC(C)C)C(N)=O [Compound 1] (Ac-Ser-Lys-Leu-NH2)
- Human serum κ ([2]; 0.3 mg/kg/day): 5134 ± 696 ng/mL
- IL-6 ([2]; 0.3 mg/kg/day): 70.2 ± 4.7 pg/mL
- Serum TRAcP 5b ([2]; 0.3 mg/kg/day): 3.6 +/− 0.28 U/L
- Human serum κ ([2]; 3.0 mg/kg/day): 3465 +/− 422* ng/ml
- IL-6 ([2]; 3.0 mg/kg/day): 40.0 +/− 4.2* pg/ml
- Serum TRAcP 5b ([2]; 3.0 mg/kg/day): 2.8 +/− 0.15* U/L
- tibial bone loss (FIG. 1) ([2]; 30 mg/kg dose, SCID/CAG-hpse MM model): reducing tibial bone loss
- TRAP^+ OC/mm BS ([2]; 30 mg/kg/day): 1.0 +/− 0.2*
- p-Smad 2 IHC in bone marrow ([2]; 30 mg/kg/day): 2390 +/− 472* arbitrary units
- μCT (tibia) BV/TV ([2]; 30 mg/kg/day, n = 4): 0.13 +/− 0.01*
- μCT (tibia) TbN ([2]; 30 mg/kg/day, n = 4): 4.03 +/− 0.28*
- μCT (tibia) TbSp ([2]; 30 mg/kg/day, n = 4): 0.25 +/− 0.02*
- Human serum κ ([2]; 30 mg/kg/day): 2593 +/− 443* ng/ml
- IL-6 ([2]; 30 mg/kg/day): 31.8 +/− 4.0* pg/ml
- Serum TRAcP 5b ([2]; 30 mg/kg/day): 2.5 +/− 0.13* U/L
- pIC50 [1]: 11.00 to 12.00
- Co ([3]; i.v., 1 mg/kg): 1025.73 ng/mL
- AUC(0-inf) [3, 5]: 1380 ng·h/mL
- AUC(0-t) [3, 5]: 1210 ng·h/mL
- clearance [3, 5]: 12.1 mL/min/kg
- half-life [3, 5]: 637 min
- Vd ([3]; male, Swiss Albino, mouse, iv, 1 mg/kg, read-out: Vss): 6.31 L/kg
- bioavailability ([3]; male, Swiss Albino, mouse, oral 3 mg/kg vs i.v. 1 mg/kg): 24%
- AUC(0-inf) [3, 6]: 1070 ng·h/mL
- AUC(0-t) [3, 6]: 875 ng·h/mL
- Cmax [3, 6]: 208 ng/mL
- Tmax [3, 6]: 30 min

SMILES: CC(=O)N[C@@H](CO)C(=O)N[C@@H](CCCCN)C(=O)N[C@@H](CC1CC1)C(N)=O [Compound 37] (HELM PEPTIDE1{[ac].S.K.[O=C([C@H](CC1CC1)N[*:1])[*:2]].[am]}$$$$V2.0)
- pIC50 [1]: 10.00 to 10.30

SMILES: CC(=O)N[C@H](CO)C(=O)N[C@@H](CCCCN)C(=O)N[C@@H](CC(C)C)C(N)=O [Compound 94] (HELM PEPTIDE1{[ac].[dS].K.L.[am]}$$$$V2.0)
- pIC50 [1]: 9.30 to 10.00

SMILES: CC(C)C[C@H](NC(=O)[C@H](CCCCN)NC(=O)[C@H](CO)NC(=O)[C@@H](N)CC(C)C)C(=O)O [LSKL, leucine-serine-lysine-leucine] (H-LSKL-OH; N-terminus and C-terminus assumed)
- necropsy findings (TSP1-TGF-β activation; after 15 weeks of 30 mg/kg i.p., 3 times weekly): no inflammation, no tumors in all major organs, and no impairment of wound healing
- Smad signaling and dermal wound healing (TSP1-TGF-β activation; systemic administration, diabetic mice): did not reduce Smad signaling or impair dermal wound healing
- half-life [4]: 2.1 min

The next lines start with the values.

- pIC50 [1]: 11.00 to 12.00
SMILES: CNC(=O)[C@H](CC(C)C)NC(=O)[C@@H](CCCCN)NC(=O)[C@@H](NC(C)=O)C(C)O (some centres unmarked) [Compound 14] (HELM PEPTIDE1{[ac].[CC(O)[C@H](N[*:1])C(=O)[*:2]].[dK].L.[CN[*:1]]}$$$$V2.0)

- pIC50 [1]: 9.30 to 10.00
SMILES: COC[C@H](NC(C)=O)C(=O)N[C@@H](CCCCN)C(=O)N[C@@H](CC(C)C)C(N)=O [Compound 100] (Ac-Ser(Me)-Lys-Leu-NH2)

- pIC50 [1]: 9.30 to 10.00
SMILES: CC(=O)N[C@@H](CO)C(=O)N[C@@H](CCCCN)C(=O)N(C)[C@@H](CC(C)C)C(N)=O [Compound 10] (HELM PEPTIDE1{[ac].S.K.[meL].[am]}$$$$V2.0)

- pIC50 [1]: 10.00 to 10.30
SMILES: CC(=O)N[C@H](C(=O)N[C@@H](CCCCN)C(=O)N[C@@H](CC(C)C)C(N)=O)C(C)O (some centres unmarked) [Compound 2] (HELM PEPTIDE1{[ac].[CC(O)[C@H](N[*:1])C(=O)[*:2]].K.L.[am]}$$$$V2.0)

- pIC50 [1]: 9.30 to 10.00
SMILES: CCC(=O)N[C@@H](CO)C(=O)N[C@@H](CCCCN)C(=O)N[C@@H](CC(C)C)C(N)=O [Compound 101] (HELM PEPTIDE1{[CCC(=O)[*:2]].S.K.L.[am]}$$$$V2.0)

- pIC50 [1]: 9.30 to 10.00
SMILES: CC(=O)N[C@@H](CO)C(=O)N[C@@H](CCCCN(C)C)C(=O)N[C@@H](CC(C)C)C(N)=O [Compound 22] (HELM PEPTIDE1{[ac].S.[CN(C)CCCC[C@H](N[*:1])C(=O)[*:2]].L.[am]}$$$$V2.0)

- pIC50 [1]: 10.00 to 10.30
SMILES: CC(=O)N[C@@H](CO)C(=O)N[C@@H](CCCCN)C(=O)N[C@H](CC(C)C)C(N)=O [Compound 96] (HELM PEPTIDE1{[ac].S.K.[dL].[am]}$$$$V2.0)
